Experimental data from patent US20230274799A1, “SYSTEMS AND METHODS FOR PATIENT STRATIFICATION AND IDENTIFICATION OF POTENTIAL BIOMARKERS” (Berg LLC, priority 2016, published 2023).
Values joined by “and” are separate entries in the source; they are usually repeats but may differ in a detail not shown here. Equal values may be shown once.

Assay: Phase I dose-escalation trial, dose limiting toxicities of Coenzyme Q10 monotherapy (Arm 1)
Type: in vivo, human
Description: The clinical trial is a multicenter, open-label, non-randomized, dose-escalation study to examine the dose limiting toxicities (DLT) of Coenzyme Q10 administered as a 144-hour continuous intravenous (IV) infusion as monotherapy (treatment Arm 1) and in combination with chemotherapy (treatment Arm 2) in patients with solid tumors. A broad range of solid tumors has been evaluated, including prostate, colon, breast, lung and pancreatic tumors, as shown in Tables 1 and 2 below. Coenzyme Q10 was administered in three consecutive 48 hour doses or two consecutive 72 hour doses, depending on the dose level. Three standard weekly chemotherapy regimens of gemcitabine, 5-fluorouracil, or docetaxel were evaluated in combination with Coenzyme Q10. Eligible patients are 18 years of age or older, afflicted with solid tumors, and relapsed/refractory to standard therapy. 85 patients have been enrolled in the trial. The monotherapy arm received Coenzyme Q10 for 6 days in continuous infusion in 28 day cycles, and the combination arms (gemcitabine, 5-fluorouracil, or docetaxel) were primed for 3 weeks with Coenzyme Q10 before initiation of standard chemotherapy, followed by weekly dosing in a 6 week cycle.
The study is a standard 3+3 dose escalation design with the dose escalated in successive cohorts of 3 to 6 patients each. Toxicity at each dose level is graded according to National Cancer Institute Common Terminology Criteria for Adverse Events (CTCAE v4.02). Safety oversight is provided by the Cohort Review Committee (CRC). If none of the 3 patients in a cohort experiences a DLT during Cycle 1, then 3 new patients may be entered at the next higher dose level following CRC review of safety and PK data from lower cohorts. The clinical trial is described in greater detail in WO2015/035094, which is incorporated by reference herein in its entirety.
DLTs were reported at 171 mg/kg in the Coenzyme Q10 monotherapy arm and at 137 mg/kg in the gemcitabine arm (maximum administered dose) and were coagulopathy-related. 3 DLTs were reported during the time period covered by Example 1. […] The event resolved in 2 days after administration of Vitamin K and fresh frozen plasma (FFP). Three additional patients were enrolled at this dose level with no additional DLTs reported. […] According to trial design, patients were being enrolled into the next lowest dose level (110 mg/kg).
Table 4. Dose limiting toxicities for Coenzyme Q10 monotherapy. The number of patients enrolled at each dose level (DL) is shown in parentheses. DL4 and DL5 were administered in two consecutive 72 hour IV infusions. All other dose levels were administered by three consecutive 48 hour IV infusions.

COC1=C(OC)C(=O)C(C/C=C(\C)CC/C=C(\C)CC/C=C(\C)CC/C=C(\C)CC/C=C(\C)CC/C=C(\C)CC/C=C(\C)CC/C=C(\C)CC/C=C(\C)CCC=C(C)C)=C(C)C1=O [Coenzyme Q10]
Time to resolution of DLT event (grade 3 PTT abnormality) (Mono Dose Level 5 (171 mg/kg), after administration of Vitamin K and fresh frozen plasma): 2 days | Dose Limiting Toxicity (monotherapy DL1 - 66 mg/kg (9 enrolled), three consecutive 48 hour IV infusions, cell wraps r7-r9: Grade 3 Elevated Liver Function Test*, *readjudicated to unlikely related to protocol therapy): Grade 3 Elevated | Dose Limiting Toxicity (monotherapy DL2 - 88 mg/kg (4 enrolled), three consecutive 48 hour IV infusions): None | Dose Limiting Toxicity (monotherapy DL3 - 110 mg/kg (5 enrolled), three consecutive 48 hour IV infusions): None | Dose Limiting Toxicity (monotherapy DL4 - 137 mg/kg (4 enrolled), two consecutive 72 hour IV infusions): None | Dose Limiting Toxicity (monotherapy DL5 - 171 mg/kg (8 enrolled), two consecutive 72 hour IV infusions, cell wraps r20-r21: 1 DLT: Grade 3 PTT elevation): grade 3 partial thromboplastin time (PTT) abnormality and 1 DLT: Grade 3 | Number of DLTs reported (whole trial (mono and combination arms), time period covered by Example 1): 3
